Source: article PMC4199632, “Exploring the Anti-Cancer Activity of Novel Thiosemicarbazones Generated through the Combination of Retro-Fragments: Dissection of Critical Structure-Activity Relationships” (PLoS ONE, 2014)

Legend:
[1] = tested on: HCT116 p53+/+ colon cancer cells; assay: Proliferation assay (MTS, 96 h); format: cell-based, human; conditions: Homo sapiens, HCT-116; 96 h incubation, MTS; mean ±SD (3 experiments)
Experimental: (§1) The human cancer cell types (neuroepithelioma (SK-N-MC), colon cancer (HCT116 with wild-type p53 (p53^+/+)), Burkitt's lymphoma (Raji) and cervical carcinoma (HeLa)) cells and normal human dermal fibroblasts (NHDF) were obtained from the American Type Culture Collection (ATCC, Manassas, VA, USA). HCT116 null p53 (p53^−/−) cells were obtained from the Maria Sklodowska-Curie Memorial Cancer Center and Institute of Oncology, Poland.
(§2) The SK-N-MC cells were cultured in minimum essential medium (MEM; Life Technologies, Grand Island, New York, USA) containing 10% (v/v) fetal bovine serum (FBS; Life Technologies), 1 mM sodium pyruvate (Life Technologies), 1% (v/v) non-essential amino acids (Life Technologies), 2 mM L-glutamine (Life Technologies), 100 U/mL penicillin (Life Technologies), 100 µg/mL streptomycin (Life Technologies) and 0.28 µg/mL fungizone (Bristol Myers Squibb Pharmaceuticals, Montreal, Canada). The HCT116 and NHDF cells were grown in Dulbecco's modified Eagle's medium (DMEM; Sigma-Aldrich) supplemented with 12% (v/v) heat-inactivated FBS (HCT116; Life Technologies) or 15% (v/v) FBS (NHDF; Life Technologies), 100 µg/mL of gentamicin (Polfa Warszawa S.A., Warsaw, Poland), 100 µg/mL of streptomycin (Polfa) and 100 U/mL of penicillin (Polfa). The Raji and HeLa cells were cultured in Roswell Park Memorial Institute medium (RPMI-1640; Sigma-Aldrich) with the addition of 10% (v/v) heat-inactivated FBS (Life Technologies) and the supplements described for SK-N-MC cells above. All cell lines were cultured under standard conditions at 37°C in a humidified atmosphere at 5% CO2 and were subcultured every 3–4 days as required.
(§3) The cells were seeded in 96-well plates (SK-N-MC: 1.5×10^4 cells/well; HeLa: 5.0×10^3 cells/well; Raji: 3.0×10^3 cells/well; HCT116: 3.5×10^3 cells/well; NHDF: 3.0×10^3 cells/well) 24 h prior to the addition of the novel compounds. The assays were performed using a 72 h (SK-N-MC, Raji, HeLa) or 96 h (HCT 116, NHDF) incubation period with the agents at 37°C. […] Additionally, DFO and Dp44mT were included as positive controls in all experiments as their activity is well characterized, [42], [50].
(§4) Chelator stock solutions were prepared in DMSO and diluted in media so that the final [DMSO] <0.05%. The results were expressed as a percentage of the control and the resulting IC50 values were calculated using GraphPad Prism 5 (GraphPad Software, Inc., La Jolla, CA, USA). The IC50 was defined as the concentration necessary to reduce the absorbance to 50% of the untreated control. Each individual compound was tested in triplicate in a single experiment, with each experiment being repeated three times. After incubation of HCT 116 and NHDF cells with the tested compounds, 20 µL of the CellTiter 96 Aqueous One Solution - MTS (Promega, Madison, WI, USA) solution was added to each well (with 100 µL of DMEM without phenol red) and incubated for 1 h/37°C. The optical density of the samples was analyzed at 490 nm.

[2] = tested on: HCT116 p53−/− colon cancer cells; assay: Proliferation assay (MTS, 96 h); format: cell-based, human; conditions: Homo sapiens, HCT-116, 96 h, 96 h incubation, MTS; mean ±SD (3 experiments)
Experimental: as §1, §2, §3, §4

[3] = tested on: Raji Burkitt's lymphoma cells; assay: Proliferation assay (MTT, 72 h); format: cell-based; conditions: Homo sapiens, 72 h incubation, mean ±SD (3 experiments)
Experimental: as §1, §2, §3, §4
(§5) MTT (3-[4,5-dimethylthiazol-2-yl]-2,5-diphenyltetrazolium bromide) was used to evaluate the anti-proliferative effects of the chelators in SK-N-MC and Raji cells. Following incubation with the investigated compounds, 10 µL of MTT (5 mg/mL in PBS; Sigma-Aldrich) was added to each well. After a 2 h (SK-N-MC) or 4 h (Raji) incubation, the plates were centrifuged, and the cells were lysed with 100 µL of 10% SDS-50% isobutanol in 0.01 M HCl (SK-N-MC) or DMSO (Raji). The absorbance was measured at 570 nm. The anti-proliferative effects of these novel agents on HeLa cells were estimated using crystal violet staining (0.5% crystal violet solution for 10 min). Finally, the wells were rinsed with water and the cells were lysed with 2% SDS. The optical density of the samples was analyzed at 595 nm.

[4] = tested on: SK-N-MC neuroepithelioma cells; assay: Proliferation assay (MTT, 72 h); format: cell-based; conditions: Homo sapiens, 72 h incubation, mean ±SD (3 experiments)
Experimental: as §1, §2, §3, §4, §5

[5] = tested on: HeLa cervical carcinoma cells; assay: Proliferation assay (crystal violet, 72 h); format: cell-based; conditions: Homo sapiens, 72 h incubation, mean ±SD (3 experiments)
Experimental: as §1, §2, §3, §4, §5

[6] = tested on: normal human dermal fibroblast (NHDF) cells; assay: Proliferation assay (MTS, 96 h), normal mortal cells; format: cell-based; conditions: Homo sapiens, NHDF, 96 h, 96 h incubation, mean ±SD (3 experiments)
Experimental: as §1, §2, §3, §4

| SMILES | IC50 [1] [µM] | IC50 [2] [µM] | IC50 [3] [µM] | IC50 [4] [µM] | IC50 [5] [µM] | IC50 [6] [µM] |
| --- | --- | --- | --- | --- | --- | --- |
| CCN1CCN(C(=S)NN=C(c2ccccn2)c2ccccn2)CC1 [1a] | 0.02 ± 0.002 | 0.04 ± 0.003 | 0.08 ± 0.02 | 0.18 ± 0.09 | 0.48 ± 0.31 | 0.017 ± 0.004 |
| S=C(N/N=C/c1ccc2ccccc2n1)N1CCOCC1 [2c] | 1.49 ± 0.02 | 1.56 ± 1.12 | 0.06 ± 0.01 | 1.4 ± 0.69 | 1.75 ± 0.33 | 3.27 ± 0.88 |
| Oc1cccc2ccc(/C=N/NC(=S)N3CCN(c4ccccc4)CC3)nc12 [3b] | 4.18 ± 1.46 | 4.67 ± 2.04 | 0.19 ± 0.02 | > 6.25 | 8.45 ± 2.09 | 8.88 ± 1.07 |
| Oc1cccc2ccc(/C=N/NC(=S)N3CCN(c4ccccn4)CC3)nc12 [3d] | 8.41 ± 1.78 | 8.46 ± 0.25 | 0.12 ± 0.04 | > 6.25 | 6.59 ± 0.13 | 10.2 ± 2.4 |
| Oc1ccc2cccnc2c1/C=N/NC(=S)N1CCN(c2ccccc2)CC1 [4b] | 7.45 ± 0.66 | 8.88 ± 2.53 | 2.23 ± 1.2 | 4.46 ± 0.78 | 4.38 ± 0.95 | 10.1 ± 1.2 |
| Oc1ccc2cccnc2c1/C=N/NC(=S)N1CCN(c2ccccn2)CC1 [4d] | 9.15 ± 1.19 | 6.84 ± 5.48 | 1.55 ± 0.4 | 4.54 ± 1.6 | 2.73 ± 0.55 | 10.1 ± 2.7 |
| Oc1ccc2cccnc2c1/C=N/NC(=S)N1CCN(c2cnccn2)CC1 [4e] | 10.1 ± 0.7 | 9.44 ± 1.35 | 4.55 ± 2.52 | 4.17 ± 1.44 | 3.49 ± 0.04 | 9.56 ± 1.44 |
| CN(C(=S)N/N=C/c1c(O)ccc2cccnc12)C1CCCCC1 [4f] | 19 ± 0.5 | 18.9 ± 3.6 | 0.46 ± 0.23 | > 6.25 | 13.3 ± 1 | 9.18 ± 3.68 |
| CCN1CCN(C(=S)N/N=C/c2cnc3ccccc3n2)CC1 [5a] | 6.15 ± 1.28 | 8.72 ± 1.64 | 0.11 ± 0.02 | – | 1.12 ± 0.03 | 2.73 ± 1.77 |
| S=C(N/N=C/c1cnc2ccccc2n1)N1CCN(c2ccccc2)CC1 [5b] | 3.92 ± 0.74 | 2.24 ± 1.47 | 0.5 ± 0.05 | 3.44 ± 1.12 | 6.05 ± 2.73 | 9.61 ± 0.9 |
| Oc1ccccc1/C=N/NC(=S)N1CCN(c2cnccn2)CC1 [6e] | 10.9 ± 0.7 | 10.7 ± 1 | 9.83 ± 2.05 | > 6.25 | 19.2 ± 2.5 | > 25 |
